In ChEMBL document CHEMBL6096652, “Design, synthesis and anti-tumor evaluation of novel pyrimidine and quinazoline analogues” (Eur J Med Chem, 2025):
pIC50: −log10 of the molar value.

How the values were obtained:
[1] = tested on: B16-F10; test: Antiproliferative activity against mouse B16-F10 cells incubated for 48 hrs by MTT assay; assay type: functional, cell-based; settings: B16-F10, 48 h
[2] = tested on: A549; test: Antiproliferative activity against human A549 cells incubated for 48 hrs by MTT assay; assay type: functional, cell-based; settings: A549, 48 h
[3] = tested on: MCF7; test: Antiproliferative activity against human MCF7 cells incubated for 48 hrs by MTT assay; assay type: functional, cell-based; settings: MCF7, 48 h
[4] = tested on: HepG2; test: Antiproliferative activity against human HepG2 cells incubated for 48 hrs by MTT assay; assay type: functional, cell-based; settings: HepG2, 48 h
[5] = tested on: B16-F10; test: Inhibition of cell migration in mouse B16-F10 cells assessed as recovery of scratch area at 50 nM incubated for 24 hrs by wound healing assay (reference value: 72.97 %); assay type: functional; set-up: scale not given: the % may be the effect or the level left
[6] = tested on: B16-F10; test: Antitumor activity against mouse B16-F10 cells implanted in C57BL/6 mouse at 10 mg/kg measured after 10 days relative to control; assay type: functional; settings: B16-F10, 240 h, time 10 day, read-out: TGI

Row | SMILES | pIC50 [1] | pIC50 [2] | pIC50 [3] | pIC50 [4] | Activity [5] | inhibition in vivo at 10 mg/kg [6]
1 | COc1cc(NC(=O)c2ccnc(-c3ccccc3)n2)cc(OC)c1OC | < 4.30 | 5.27 | < 4.30 | 5.63 | – | –
2 | COc1cc(Nc2nc(-c3ccc4c(cnn4C)c3)nc3ccccc23)cc(OC)c1OC | 5.75 | 5.19 | 5.48 | 5.50 | – | –
3 | COc1cc(Nc2ccnc(-c3cc(OC)c(OC)c(OC)c3)n2)cc(OC)c1OC | < 4.30 | < 4.30 | < 4.30 | < 4.30 | – | –
4 | COc1ccc(-c2nccc(Nc3cc(OC)c(OC)c(OC)c3)n2)cc1 | 5.57 | 5.65 | 5.14 | 5.91 | – | –
5 | COc1cc(Nc2nc(-c3ccccc3)nc3ccccc23)cc(OC)c1OC | 6.05 | 5.40 | 5.31 | 6.09 | – | –
6 | COc1cc(Nc2nc(-c3cc(OC)c(OC)c(OC)c3)nc3ccccc23)cc(OC)c1OC | 6.88 | 6.40 | 5.53 | 6.11 | – | –
7 | COc1cc(NC(=O)c2ccnc(-c3ccc4c(c3)OCCO4)n2)cc(OC)c1OC | < 4.30 | 5.51 | < 4.30 | < 4.30 | – | –
8 | COc1cc(NC(=O)c2ccnc(-c3cccc4c3ccn4C)n2)cc(OC)c1OC | 5.64 | 5.51 | 5.72 | 5.96 | – | –
9 | COc1ccc(-c2nccc(Nc3cc(OC)c(OC)c(OC)c3)n2)cn1 | < 4.30 | 5.51 | < 4.30 | < 4.30 | – | –
10 | COc1ccc(-c2nc(Nc3cc(OC)c(OC)c(OC)c3)c3ccccc3n2)cc1 | < 4.30 | < 4.30 | < 4.30 | < 4.30 | – | –
11 | COc1cc(Nc2ccnc(-c3ccc(O)c(C)c3)n2)cc(OC)c1OC | 5.30 | 5.97 | 5.17 | 5.19 | – | –
12 | COc1cc(NC(=O)c2ccnc(-c3ccc(C(F)(F)F)cc3)n2)cc(OC)c1OC | < 4.30 | < 4.30 | < 4.30 | < 4.30 | – | –
13 | COc1cc(Nc2ccnc(-c3ccc4c(cnn4C)c3)n2)cc(OC)c1OC | 5.73 | 6.22 | 5.95 | 5.84 | – | –
14 | COc1cc(Nc2nc(-c3ccc(C)cc3)nc3ccccc23)cc(OC)c1OC | < 4.30 | 5.74 | < 4.30 | 5.61 | – | –
15 | COc1cc(Nc2ccnc(-c3ccc4c(ccn4C)c3)n2)cc(OC)c1OC | 5.74 | 5.64 | 5.28 | 5.31 | – | –
16 | COc1ccc(-c2nccc(C(=O)Nc3cc(OC)c(OC)c(OC)c3)n2)cc1OC | < 4.30 | < 4.30 | < 4.30 | < 4.30 | – | –
17 | COc1cc(Nc2nc(-c3ccc(F)cc3)nc3ccccc23)cc(OC)c1OC | < 4.30 | < 4.30 | < 4.30 | < 4.30 | – | –
18 | COc1cc2c(c(OC)c1OC)-c1ccc(OC)c(=O)cc1[C@@H](NC(C)=O)CC2 [COLCHICINE] | 7.10 | 6.29 | 7.51 | 7.42 | 33.68% | 72.8%
19 | COc1cc(NC(=O)c2ccnc(-c3ccc(C)cc3)n2)cc(OC)c1OC | < 4.30 | 5.22 | < 4.30 | < 4.30 | – | –
20 | COc1cc(Nc2ccnc(-c3ccc(C#N)cc3)n2)cc(OC)c1OC | < 4.30 | 5.32 | < 4.30 | 5.36 | – | –
21 | COc1cc(Nc2ccnc(-c3cccc4c3cnn4C)n2)cc(OC)c1OC | 5.34 | 5.26 | 5.15 | 5.23 | – | –
22 | COc1cc(Nc2ccnc(-c3ccccc3)n2)cc(OC)c1OC | 5.14 | 5.39 | < 4.30 | 5.04 | – | –
23 | COc1cc(Nc2ccnc(-c3ccc(C)cc3)n2)cc(OC)c1OC | 5.12 | 5.67 | 5.24 | 5.73 | – | –
24 | COc1cc(Nc2ccnc(-c3ccc(F)cc3)n2)cc(OC)c1OC | 5.08 | 5.19 | < 4.30 | 5.10 | – | –
25 | COc1ccc(-c2nc(Nc3cc(OC)c(OC)c(OC)c3)c3ccccc3n2)cc1OC | 6.48 | 5.25 | < 4.30 | < 4.30 | – | –
26 | COc1cc(Nc2nc(-c3cccc4c3ccn4C)nc3ccccc23)cc(OC)c1OC | 6.11 | 5.87 | 6.06 | 6.26 | – | –
